Measured values published in PMC8920379, “The discovery of berberine erythrocyte-hemoglobin self-assembly delivery system: a neglected carrier underlying its pharmacokinetics” (Drug Delivery, 2022).
Where two headings read alike, the source gives them in different places.

What was measured:
bovine hemoglobin (BHB) [1] = target: T1, bovine hemoglobin (BHB) (Bos taurus, UniProt P01966+P02070); experiment: Circular dichroism of BHB-BBR systems; type: binding; details: CD, BHB:BBR molar ratios up to 1:8, reduced from 36.87% for BHB alone, pH 7.4, 298 K
T1 construct: purchased Sigma Aldrich
T1 sequence (P01966 2-142 limits assumed): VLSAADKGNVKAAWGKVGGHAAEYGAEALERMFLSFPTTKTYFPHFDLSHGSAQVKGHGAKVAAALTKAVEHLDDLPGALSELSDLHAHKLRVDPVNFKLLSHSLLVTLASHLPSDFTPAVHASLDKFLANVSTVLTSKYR
T1 sequence (P02070 whole entry): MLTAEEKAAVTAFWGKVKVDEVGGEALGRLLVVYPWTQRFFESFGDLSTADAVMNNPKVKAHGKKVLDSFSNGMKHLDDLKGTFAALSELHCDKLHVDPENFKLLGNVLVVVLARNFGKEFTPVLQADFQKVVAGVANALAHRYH
Experimental: (§1) In addition, CD spectra were collected from 200 to 260 nm with three scans averaged for each CD spectrum. The molar ratio (1:1) of BHB: BBR was used for the measurement. Briefly, BHB and BBR were dissolved in Tris-HCl (pH 7.4), and the solutions were freeze-dried into powder. Raman spectra were measured from 2600 to 400 cm^−1 using the Nd-YAG laser (1064 nm). Due to the existence of inner filter effects, the fluorescence parameter was corrected using the equation: F=F0×10^(AEX+AEM/2) where F and F0 are the fluorescence intensity corrected and observed, respectively; AEX and AEM are the sums of the absorbance of samples at excitation and emission wavelengths (Chen et al., [2021]).
In this work, the molar ratios of 1:0, 1:2, 1:4 and 1:8 for BHB: BBR were utilized for the CD records. […] Besides, the helix of α chain can be calculated following the below equation: α−Helix(%)=−MRE208−4000/33000−4000×100 where MRE208 is the observed MRE value at 208 nm, 4000 is the MRE value of β-form and random coil conformation cross at 208 nm, and 33,000 is the MRE value of pure α-helix at 208 nm (Shobini et al., [2001]).

[2] = Bioavailability study of BBR via intravenous and oral administration (free drug in plasma, HPLC); type: in vivo, SD rats; details: rat plasma; for AUC(0-t): n = 8, mean ± SEM
Experimental: Sixteen SD rats were randomly divided into two groups (n = 8) and received a single intragastrical administration (i.g.) of BBR at the dose of 400 mg/kg and intravenous injection (i.v.) at 2.5 mg/kg dose, respectively. Blood samples (0.5 mL) were obtained from the retroorbital sinus at 0.083, 0.167, 0.25, 0.5, 1, 2, 4, 8 and 24 h after administration for i.v. group and at 0.083, 0.167, 0.25, 0.5, 1, 2, 4, 8 and 24 h for i.g. groups. The plasma samples were processed with a protein precipitation method using acetonitrile and the concentration of free drug was analyzed by HPLC (Li et al., [2016]).

bovine hemoglobin (BHB) [3] = target: T1, bovine hemoglobin (BHB); experiment: Fluorescence quenching of BHB by BBR (Stern-Volmer) and thermodynamic parameters; type: binding; details: for Ksv (Stern-Volmer quenching constant) / kq (quenching rate constant): BHB 2 × 10^−6 mol/L, pH 7.4; for ΔG° / ΔH° / ΔS°: BBR–BHB system
Experimental: Firstly, 1.0 mL of BHB (2.0 × 10^−6 mol/L) was mixed with 1.0 mL of 0.05 mol/L Tris-HCl buffer (pH = 7.4). And then BHB was added with different amounts of 0.25 × 10^−3 mol/L stock solution of BBR with an increment of 0.25 × 10^−5 mol/L until 1.75 × 10^−5 mol/L. […] (excitation at 280 nm and emission wavelengths ranging from 295 to 400 nm). The synchronous fluorescence spectra were measured through simultaneous scanning of the excitation (λex = 240 nm) and emission monochromators while maintaining a constant wavelength interval between them (Δλ, 15 nm and 60 nm).
as §1
Fluorescence quenching could be used to explore the interaction between drugs and proteins, and further elucidate the interaction between small drug molecules and biological macromolecules at the molecular level. Due to the quenching mechanisms were usually classified as static and dynamic quenching, the Stern-Volmer equation was utilized to calculate the fluorescence quenching data (Wang et al., [2007]): F0/F=1+Ksv[Q]=1+kqτ0[Q] where F0 and F are the fluorescence intensities at the absence or presence of BBR after correction by Equation, respectively. Ksv is the Stern-Volmer quenching constant, while [Q] is the concentration of the quencher. In addition, kq is the quenching rate constant of the binding system, and τ0 is the lifetime of fluorescence at the absence of quencher ([…]) (Sousa et al., [2008]).
In our earlier research, we have explored the association constants and the number of binding sites, and we have learned that in a static quenching system when a small molecule combines with a set of sites on a macromolecule, some constant can be calculated from the following equation: lg(F0−F/F)=lgKa+nlg[Q] where F0 and F are the fluorescence intensities in the absence and presence of BBR after correction by Equation in Spectrum procedure, Ka and n mean the association constants and the number of the sites per BHB molecule. The interrelated results were shown in our previous work (Chen et al., [2021]).
The thermodynamic parameters were analyzed using the following equations: ln((Ka)2/(Ka)1)=(1/T1−1/T2)(ΔH°/R) ΔG°=ΔH°−TΔS°=−RTlnKa where (Ka)1, and (Ka)2 are the binding constants at T1 and T2 and, R is the universal gas constant. If ΔH° < 0 and ΔS° < 0, van der Waals’ interactions and hydrogen bonds are dominant the binding reaction. If ΔH° > 0 and ΔS° > 0, hydrophobic interactions play a major role in the binding reaction. When ΔH° < 0 and ΔS° > 0, the electrostatic forces are more important than other forces (Ross and Subramanian, [1981]). […] The large positive entropy is the marker of the disruption and release of protein-bound condensed ions and water molecules (Basu & Suresh Kumar, [2015]).

[4] = set-up: method as in Liu et al., 2010; Chen et al., 2011; details: ref Liu et al., 2010; Chen et al., 2011; cited from earlier work
[5] = SD, intravenous administration 2.5 mg/kg, n = 8
[6] = SD, oral administration 400 mg/kg, n = 8

## COc1ccc2cc3[n+](cc2c1OC)CCc1cc2c(cc1-3)OCO2 [BBR, Berberine]
Bovine hemoglobin (BHB) [1]
  α-helicity of BHB after addition of BBR: 33.53%
[2]; [5]
  AUC(0-inf): 7440 ± 548 ng·h/mL
  MRT: 5.6 ± 0.561 h
[2]; SD, intravenous administration 2.5 mg/kg
  AUC(0-t): 6420 ± 685 ng·h/mL
[2]; SD, intravenous administration 2.5 mg/kg, n = 8, read-out: Cmax/C0 (C0)
  Cmax: 2830 ± 132 ng/mL
[2]; [6]
  AUC(0-inf): 685 ± 93 ng·h/mL
  MRT: 4.53 ± 0.515 h
  Tmax: 1 h
[2]; SD, oral administration 400 mg/kg
  AUC(0-t): 681 ± 93 ng·h/mL
[2]; SD, oral administration 400 mg/kg, n = 8, read-out: Clz/F (converted)
  CL/F: 254 L/h/kg
[2]; SD, oral administration 400 mg/kg, n = 8, read-out: Cmax/C0 (Cmax)
  Cmax: 260 ± 32 ng/mL
[2]; intravenous administration 2.5 mg/kg, n = 8, 2.5 mg/kg
  t1/2z: 3.885 ± 0.389 h
[2]; oral administration 400 mg/kg, n = 8, 400 mg/kg
  t1/2z: 3.136 ± 0.357 h
Bovine hemoglobin (BHB) [3]; 293 K
  Ksv (Stern-Volmer quenching constant): 41272 L/mol
  kq (quenching rate constant): 4.1272e+12 M⁻¹ s⁻¹
  ΔG°: -6.1902 kcal/mol
  ΔH°: -1.1352 kcal/mol
  ΔS°: 72.113 J mol^−1K^−1
Bovine hemoglobin (BHB) [3]; 298 K
  Ksv (Stern-Volmer quenching constant): 38445 L/mol
  kq (quenching rate constant): 3.8445e+12 M⁻¹ s⁻¹
  ΔG°: -6.2765 kcal/mol
  ΔH°: -1.1352 kcal/mol
  ΔS°: 72.114 J mol^−1K^−1
Bovine hemoglobin (BHB) [3]; 310 K
  Ksv (Stern-Volmer quenching constant): 30957 L/mol
  kq (quenching rate constant): 3.0957e+12 M⁻¹ s⁻¹
  ΔG°: -6.4493 kcal/mol
  ΔH°: -1.1352 kcal/mol
  ΔS°: 71.724 J mol^−1K^−1
Bovine hemoglobin (BHB) [3]; Ksv and Kq decreased with increasing temperature
  quenching mechanism of BBR-BHB complex formation: static quenching process
Bovine hemoglobin (BHB) [3]; from negative ΔH° and positive ΔS°
  major force in the binding reaction: electrostatic interaction
[4]
  oral bioavailability: less than 1%
